The subject of series [1] is PPARGC1B. In words: qPCR of PPARGC1B mRNA expression in a-MSH-treated B16F10 cells. It counts as cell-based, mouse. To be noted: B16F10, 10 nM a-MSH plus substance, one day, appropriate concentration; FIG. 3. The method, then: (§1) Screening was performed for substances that influence the expression of genes associated with spot pigmentation among various substances having the skin-improving efficacy. Changes in the expression of genes associated with spot pigmentation were examined in cells where melanin synthesis was increased by a-MSH, and substances that restored the expression to the level before a-MSH treatment were selected.
(§2) Mouse melanoma cells (B16F10; CRL-6475) were purchased from ATCC for use. The purchased cells were cultured in a 37 °C/5% CO2 incubator using a medium prepared by supplementing Dulbecco's Modified Eagle Medium (DMEM-GIBCO) with 10% fetal bovine serum (FBS) and 1% penicillin/streptomycin.
(§3) To analyze the efficacy on changes in the mRNA expression of genes associated with skin spot pigmentation, mouse melanoma cells were seeded at […] cells/well in 6-well plates and cultured in a 37 °C/5% CO2 incubator for one day. After replacing the medium with a fresh medium, 10 nM α-MSH was treated, and substances were added to the medium at appropriate concentrations and cultured for one day under the same conditions. Thereafter, total RNA was obtained using AccuPrep Universal RNA Extraction Kit (Bioneer, K-3140), and cDNA was synthesized using AccuPower® RocketScript™ Cycle (Bioneer, K-2202). The expression level of each gene was analyzed by performing qPCR using synthesized cDNA and taqman probe (assay ID: ASCL2-Mm01268891_m1, PPARGC1B-Mm00504730_m1, TP63-Hs00978349_m1).
A general note: Real-time PCR tracks product formation cycle by cycle.

For series [2], the system named is scattered dark spots on skin. In words: Human application trial: customized prescription for high-risk group of scattered dark spots. To be noted: twice daily, four weeks. It counts as in vivo. How it is done:
Accordingly, it was aimed to provide specific substances capable of increasing the improvement efficiency of scattered dark spots according to the risk level of developing scattered dark spots on skin, dark skin tone, and/or spot pigmentation.
After receiving approval from the Institutional Review Board (IRB, Korea) (LG-SKEV-2022-09-A), the study was conducted in accordance with the standard operating guidelines and clinical trial standards of the Institutional Review Board of LG Household & Health Care Co., Ltd. Ten healthy adult subjects aged 20-50 with no apparent skin abnormalities were selected. […]
PIE's Janus3 was used to photograph the front and side of the face under normal, polarized, and UV light. […] The pigmentation improvement rate (%) was calculated by determining the percentage reduction in the pigmentation values after four weeks of use compared to the polarized pigmentation values before use.

The subject of a further series is dark skin tone. Description: Human application trial: customized prescription for high-risk group of dark skin tone. The class given is in vivo. To be noted: twice daily, four weeks. The method, then:
Accordingly, it was aimed to provide substances capable of increasing the improvement efficiency of dark skin tone according to the risk level of developing dark skin tone.
After receiving approval from the Institutional Review Board (IRB, Korea) (LG-SKEV-2022-09-A), the study was conducted in accordance with the standard operating guidelines and clinical trial standards of the Institutional Review Board of LG Household & Health Care Co., Ltd. Nine healthy adult subjects aged 20-50 with no apparent skin abnormalities were selected.
Based on the genetic polymorphic markers associated with skin tone brightness in Table 2, subjects were classified into low-risk and high-risk groups according to their risk level of developing dark skin tone as follows. • Risk scores (the sum of each genotype multiplied by its respective effect size (β)) for the five genetic markers were less than −0.193→low-risk group (n=4). • Risk scores (the sum of each genotype multiplied by its respective effect size (β)) for the five genetic markers were −0.193 or higher→high-risk group (n=5).
The same as in Example 4-2 […]
PIE's Janus3 was used to photograph the front and side of the face under normal, polarized, and UV light. […] The pigmentation improvement was calculated by determining the increase in the skin tone brightness values after four weeks of use compared to the skin tone brightness values before use.

The next series deals with KITLG. In words: qPCR of KITLG mRNA expression in UVB-irradiated human keratinocytes (HaCaT). It counts as cell-based. As to conditions: UVB 30 mJ/cm^2 (312 nm), substance one day, appropriate concentration, FIG. 2, UVB alone increased. The method, then: Screening was performed for substances that influence the expression of genes associated with dark skin tone among various substances having skin-improving efficacy. Changes in the expression of genes associated with dark skin tone were examined in cells where melanin synthesis was increased by a-MSH, and substances that restored the expression to the level before a-MSH treatment were selected.
To analyze the efficacy on changes in the mRNA expression of genes associated with dark skin tone, RT-qPCR experiment was conducted. Cells were cultured in a 37 °C/5% CO2 incubator for one day. To assess the change of KITLG expression by UVB, the medium of human keratinocytes (HaCaT) was replaced with PBS, and 30 mJ/cm^2 of UVB (312 nm) was irradiated using an RMX 3W (Vilber Lourmat) instrument. The medium was replaced with a fresh medium and cultured for one day. To assess the change in KITLG expression by treatment with substances, the cells were treated with appropriate concentrations of substances along with a fresh medium and cultured for one day. […] The expression level of each gene was analyzed by performing qPCR using synthesized cDNA and taqman probe (assay ID: OCA2-Mm00498969_m1, BNC2-Mm00556284_m1, RAB32-Mm00458960_m1, KITLG-Hs00241497_m1).

In another series the test system is mouse melanoma cells. Description: Inhibition of melanin production increased by UVB (scattered dark spots). As to conditions: light or radiation study, 48 h, 25 ppm DIPA alone, UVB 30 mJ/cm^2, two days, FIG. 4, read-out: reduction of melanin production (Y). The class given is cell-based. The method, then: In detail, mouse melanoma cells were seeded at 2*10^5 cells/well in 6-well plates and cultured in a 37 °C/5% CO2 incubator for one day, followed by irradiation with 30 mJ/cm^2 of UVB (312 nm). Each of media comprising appropriate concentrations and combinations of substances was added and cultured again in a 37 °C/5% CO2 incubator for two days to determine whether or not the substances inhibited the melanin production increased by UVB. Cells attached to the plates were collected in PBS and centrifuged to obtain cell pellets. The cell pellets were visually inspected and photographed. The cell pellets were dissolved in a 1 N NaOH (sodium hydroxide) solution comprising 10% dimethyl sulfoxide (DMSO) at 80 °C for 10 minutes, and placed in a 96-well plate, and absorbance at 405 nm was measured using an Epoch (Biotek) instrument. Melanin was quantified using the measured absorbance and normalized to the sample protein concentration to determine melanin concentration. The inhibition rate of melanin production of the sample was calculated as a ratio of the melanin concentration of the sample treatment group with respect to the melanin concentration increased by UVB.
E=(X+Y)−(X*Y/100) Colby equation

The next series relates to RAB11FIP2. Description: qPCR of RAB11FIP2 mRNA expression in UVB-irradiated mouse melanoma cells. It counts as cell-based. As to conditions: B16F10, UVB 30 mJ/cm^2 (312 nm), substance one day, appropriate concentration; FIG. 1; UVB alone decreased. The method, then:
(§4) Screening was performed for substances that influence the expression of genes associated with scattered dark spots on skin among various substances having skin-improving efficacy. Changes in the expression of genes associated with scattered dark spots on skin were examined in cells where melanin synthesis was increased by UVB exposure, and substances that restored the expression to the level before UVB exposure were selected.
as §2
To analyze the efficacy on changes in the mRNA expression of genes associated with scattered dark spots on skin, mouse melanoma cells were seeded at 2*10^5 cells/well in 6-well plates and cultured in a 37 °C/5% CO2 incubator for one day. After replacing the medium with PBS, 30 mJ/cm^2 of UVB (312 nm) was irradiated using an RMX 3W (Vilber Lourmat) instrument. Substances were added to the medium at appropriate concentrations and cultured for one day under the same conditions. […] The expression level of each gene was analyzed by performing qPCR using synthesized cDNA and taqman probe (assay ID: AKAP1-Mm00501539_m1, RAB11FIP2-Mm01261268_m1, PPARGC1B-Mm00504730_m1).

Series [3] concerns PPARGC1B. Description: qPCR of PPARGC1B mRNA expression in UVB-irradiated mouse melanoma cells. To be noted: B16F10, UVB 30 mJ/cm^2 (312 nm), substance one day, appropriate concentration; FIG. 1; UVB alone decreased. It counts as cell-based. The method, then: as §4, §2
To analyze the efficacy on changes in the mRNA expression of genes associated with scattered dark spots on skin, mouse melanoma cells were seeded at 2*10^5 cells/well in 6-well plates and cultured in a 37 °C/5% CO2 incubator for one day. After replacing the medium with PBS, 30 mJ/cm^2 of UVB (312 nm) was irradiated using an RMX 3W (Vilber Lourmat) instrument. Substances were added to the medium at appropriate concentrations and cultured for one day under the same conditions. Thereafter, total RNA was obtained using AccuPrep Universal RNA Extraction Kit (Bioneer, K-3140), and cDNA was synthesized using AccuPower® RocketScript Cycle (Bioneer, K-2202). The expression level of each gene was analyzed by performing qPCR using synthesized cDNA and taqman probe (assay ID: AKAP1-Mm00501539_m1, RAB11FIP2-Mm01261268_m1, PPARGC1B-Mm00504730_m1).

For series [4] the following is noted: general description; cited from earlier work.
The conditions of series [5]: general description; very acidic; concentration not given; cited from earlier work.
For another series, the system named is ASCL2. In words: qPCR of ASCL2 mRNA expression in a-MSH-treated B16F10 cells. It counts as cell-based, mouse. To be noted: B16F10, 10 nM a-MSH plus substance, one day, appropriate concentration; FIG. 3. How it is done:
as §1, §2
as §3, with “Thereafter, total RNA was obtained using AccuPrep Universal RNA Extraction Kit (Bioneer, K-3140), and cDNA was synthesized using AccuPower® RocketScript™ Cycle (Bioneer, K-2202).” left out

The mark [6] stands for this setting: 8% vitamin C essence, high-risk group (n=5).

Here are results for six compounds from patent US20260375265A1, “COMPOSITION FOR ALLEVIATING SKIN PIGMENTATION” (LG H & H CO., LTD., priority 2023, published 2026).

As to `O=C1O[C@H]([C@@H](O)CO)C(O)=C1O` [ascorbic acid], the “change of PPARGC1B expression” value with PPARGC1B [1] is “increased”. The “pigmentation improvement in the high-risk group” value (in series [2] (setting [6]); with dark skin tone (setting [6])) was “did not improve pigmentation” throughout. For the same compound, the “pigmentation improvement in the low-risk group” value is “did not improve pigmentation” in [2] (low-risk group (n=5), FIGS. 10, 11) and “slightly improved pigmentation” in the series on dark skin tone (low-risk group (n=4), FIGS. 12, 13).
As to `O=c1cc(-c2ccccc2)oc2cc(O)cc(O)c12` [chrysin, 5,7-dihydroxyflavone], the “change of KITLG expression” value in the series with KITLG is recorded as “decreasing”.
With `CC(C)OC(=O)CCCCC(=O)OC(C)C` [diisopropyl adipate (DIPA), diisopropyl adipate], in the series on mouse melanoma cells, the inhibition at 25 ppm was approximately 1.5%. In addition, the “change of RAB11FIP2 expression” value with RAB11FIP2 is listed as “increasing”.
As for `NC(=O)c1cccnc1` [niacinamide, reference compound], in the series on PPARGC1B [3], the “change of PPARGC1B expression” value was “increased”. Moreover, in series [4], the solubility in water entry is “dissolves well in water”.
With `O=C(O)c1ccccc1O` [salicylic acid, reference compound], the “change of PPARGC1B expression” value with PPARGC1B [3] is “increased”. Moreover, the pH in series [5] was 2.4.
Consider tocopherol, for which the “change of ASCL2 expression” value with ASCL2 was “decreasing”.
